Assay results published in ChEMBL document CHEMBL4373740, “Synthesis and biological evaluation of new MET inhibitors with 1,6-naphthyridinone scaffold” (Eur J Med Chem, 2020).
pIC50: −log10 of the molar value.

Legend:
MKN-45 = experiment: Antiproliferative activity against human MKN45 cells at 10 uM incubated for 72 hrs by MTT assay relative to control; format: functional; conditions: MKN-45, 72 h
[1] = molecular target: Hepatocyte growth factor receptor (Homo sapiens, UniProt P08581); experiment: Inhibition of purified recombinant MET kinase domain (unknown origin) using biotin as substrate preincubated for 5 mins followed by substrate addition and measured after 30 to 60 mins in presence of ATP by HTRF assay
[2] = molecular target: Vascular endothelial growth factor receptor 2 (Homo sapiens, UniProt P35968); experiment: Inhibition of purified recombinant VEGFR2 kinase domain (unknown origin) using biotin as substrate preincubated for 5 mins followed by substrate addition and measured after 30 to 60 mins in presence of ATP by HTRF assay
[3] = Antiproliferative activity against human NIH-H460 cells at 10 uM incubated for 72 hrs by MTT assay relative to control; format: functional; conditions: NIH-H460, 72 h
HT-29 = experiment: Antiproliferative activity against human HT-29 cells at 10 uM incubated for 72 hrs by MTT assay relative to control; format: functional; conditions: HT-29, 72 h
in vitro = conditions: human, liver microsomes
Homo sapiens = species: Homo sapiens; experiment: Selectivity index, ratio of IC50 for purified recombinant VEGFR2 kinase domain (unknown origin) to IC50 for purified recombinant MET kinase domain (unknown origin)
[4] = Cmax in Sprague-Dawley rat at 5.0 mg/kg, ig measured for 15 min to 72 hrs by LC-MS/MS analysis; format: ADME, organism-based; parameters: dose 5 mg/kg, route intragastric; conditions: in vivo, po
[5] = Oral bioavailability in Sprague-Dawley rat at 5.0 mg/kg, ig measured for 15 min to 72 hrs by LC-MS/MS analysis; format: ADME, organism-based; conditions: in vivo
[6] = Half life in Sprague-Dawley rat at 5.0 mg/kg, ig measured for 15 min to 72 hrs by LC-MS/MS analysis; format: ADME, organism-based; conditions: in vivo, po
[7] = Mean residence time in Sprague-Dawley rat at 5.0 mg/kg, ig measured for 15 min to 72 hrs by LC-MS/MS analysis; format: ADME, organism-based; conditions: in vivo, po
[8] = Half life in Sprague-Dawley rat at 1.0 mg/kg, iv measured for 5 min to 72 hrs by LC-MS/MS analysis; format: ADME, organism-based; conditions: in vivo
[9] = Cmax in Sprague-Dawley rat at 1.0 mg/kg, iv measured for 5 min to 72 hrs by LC-MS/MS analysis; format: ADME, organism-based; parameters: dose 1 mg/kg, route intravenous; conditions: in vivo
[10] = Volume of distribution in Sprague-Dawley rat at 5.0 mg/kg, ig measured for 15 min to 72 hrs by LC-MS/MS analysis; format: ADME, organism-based; conditions: in vivo, po
[11] = AUC (0 to infinity) in Sprague-Dawley rat at 5.0 mg/kg, ig measured for 15 min to 72 hrs by LC-MS/MS analysis; format: ADME, organism-based; parameters: dose 5 mg/kg, time infinity, route intragastric; conditions: in vivo, po
[12] = Tmax in Sprague-Dawley rat at 5.0 mg/kg, ig measured for 15 min to 72 hrs by LC-MS/MS analysis; format: ADME, organism-based; conditions: in vivo, po
[13] = Volume of distribution in Sprague-Dawley rat at 1.0 mg/kg, iv measured for 5 min to 72 hrs by LC-MS/MS analysis; format: ADME, organism-based; conditions: in vivo
[14] = Clearance in Sprague-Dawley rat at 1.0 mg/kg, iv measured for 5 min to 72 hrs by LC-MS/MS analysis; format: ADME, organism-based; conditions: in vivo
[15] = AUC (0 to infinity) in Sprague-Dawley rat at 1.0 mg/kg, iv measured for 5 min to 72 hrs by LC-MS/MS analysis; format: ADME, organism-based; parameters: dose 1 mg/kg, time infinity, route intravenous; conditions: in vivo
[16] = Clearance in Sprague-Dawley rat at 5.0 mg/kg, ig measured for 15 min to 72 hrs by LC-MS/MS analysis; format: ADME, organism-based; conditions: in vivo, po
[17] = Mean residence time in Sprague-Dawley rat at 1.0 mg/kg, iv measured for 5 min to 72 hrs by LC-MS/MS analysis; format: ADME, organism-based; conditions: in vivo
[18] = Oral bioavailability in Sprague-Dawley rat at 10 mg/kg, ig measured for 15 min to 72 hrs by LC-MS/MS analysis; format: ADME, organism-based; conditions: in vivo
[19] = Half life in Sprague-Dawley rat at 10 mg/kg, ig measured for 15 min to 72 hrs by LC-MS/MS analysis; format: ADME, organism-based; conditions: in vivo, po
[20] = Volume of distribution in Sprague-Dawley rat at 2.5 mg/kg, iv measured for 5 min to 72 hrs by LC-MS/MS analysis; format: ADME, organism-based; conditions: in vivo
[21] = Half life in Sprague-Dawley rat at 2.5 mg/kg, iv measured for 5 min to 72 hrs by LC-MS/MS analysis; format: ADME, organism-based; conditions: in vivo
[22] = Cmax in Sprague-Dawley rat at 10 mg/kg, ig measured for 15 min to 72 hrs by LC-MS/MS analysis; format: ADME, organism-based; parameters: dose 10 mg/kg, route intragastric; conditions: in vivo, po
[23] = Clearance in Sprague-Dawley rat at 10 mg/kg, ig measured for 15 min to 72 hrs by LC-MS/MS analysis; format: ADME, organism-based; conditions: in vivo, po
[24] = Mean residence time in Sprague-Dawley rat at 2.5 mg/kg, iv measured for 5 min to 72 hrs by LC-MS/MS analysis; format: ADME, organism-based; conditions: in vivo
[25] = Tmax in Sprague-Dawley rat at 10 mg/kg, ig measured for 15 min to 72 hrs by LC-MS/MS analysis; format: ADME, organism-based; conditions: in vivo, po
[26] = AUC (0 to infinity) in Sprague-Dawley rat at 10 mg/kg, ig measured for 15 min to 72 hrs by LC-MS/MS analysis; format: ADME, organism-based; parameters: dose 10 mg/kg, time infinity, route intragastric; conditions: in vivo, po
[27] = Mean residence time in Sprague-Dawley rat at 10 mg/kg, ig measured for 15 min to 72 hrs by LC-MS/MS analysis; format: ADME, organism-based; conditions: in vivo, po
[28] = Cmax in Sprague-Dawley rat at 2.5 mg/kg, iv measured for 5 min to 72 hrs by LC-MS/MS analysis; format: ADME, organism-based; parameters: dose 2.5 mg/kg, route intravenous; conditions: in vivo
[29] = Volume of distribution in Sprague-Dawley rat at 10 mg/kg, ig measured for 15 min to 72 hrs by LC-MS/MS analysis; format: ADME, organism-based; conditions: in vivo, po
[30] = Tmax in Sprague-Dawley rat at 2.5 mg/kg, iv measured for 5 min to 72 hrs by LC-MS/MS analysis; format: ADME, organism-based; conditions: in vivo
[31] = AUC (0 to infinity) in Sprague-Dawley rat at 2.5 mg/kg, iv measured for 5 min to 72 hrs by LC-MS/MS analysis; format: ADME, organism-based; parameters: dose 2.5 mg/kg, route intravenous, time infinity; conditions: in vivo
[32] = Clearance in Sprague-Dawley rat at 2.5 mg/kg, iv measured for 5 min to 72 hrs by LC-MS/MS analysis; format: ADME, organism-based; conditions: in vivo

Hepatocyte growth factor receptor, sequence (P08581 whole entry, the tested form may be a part): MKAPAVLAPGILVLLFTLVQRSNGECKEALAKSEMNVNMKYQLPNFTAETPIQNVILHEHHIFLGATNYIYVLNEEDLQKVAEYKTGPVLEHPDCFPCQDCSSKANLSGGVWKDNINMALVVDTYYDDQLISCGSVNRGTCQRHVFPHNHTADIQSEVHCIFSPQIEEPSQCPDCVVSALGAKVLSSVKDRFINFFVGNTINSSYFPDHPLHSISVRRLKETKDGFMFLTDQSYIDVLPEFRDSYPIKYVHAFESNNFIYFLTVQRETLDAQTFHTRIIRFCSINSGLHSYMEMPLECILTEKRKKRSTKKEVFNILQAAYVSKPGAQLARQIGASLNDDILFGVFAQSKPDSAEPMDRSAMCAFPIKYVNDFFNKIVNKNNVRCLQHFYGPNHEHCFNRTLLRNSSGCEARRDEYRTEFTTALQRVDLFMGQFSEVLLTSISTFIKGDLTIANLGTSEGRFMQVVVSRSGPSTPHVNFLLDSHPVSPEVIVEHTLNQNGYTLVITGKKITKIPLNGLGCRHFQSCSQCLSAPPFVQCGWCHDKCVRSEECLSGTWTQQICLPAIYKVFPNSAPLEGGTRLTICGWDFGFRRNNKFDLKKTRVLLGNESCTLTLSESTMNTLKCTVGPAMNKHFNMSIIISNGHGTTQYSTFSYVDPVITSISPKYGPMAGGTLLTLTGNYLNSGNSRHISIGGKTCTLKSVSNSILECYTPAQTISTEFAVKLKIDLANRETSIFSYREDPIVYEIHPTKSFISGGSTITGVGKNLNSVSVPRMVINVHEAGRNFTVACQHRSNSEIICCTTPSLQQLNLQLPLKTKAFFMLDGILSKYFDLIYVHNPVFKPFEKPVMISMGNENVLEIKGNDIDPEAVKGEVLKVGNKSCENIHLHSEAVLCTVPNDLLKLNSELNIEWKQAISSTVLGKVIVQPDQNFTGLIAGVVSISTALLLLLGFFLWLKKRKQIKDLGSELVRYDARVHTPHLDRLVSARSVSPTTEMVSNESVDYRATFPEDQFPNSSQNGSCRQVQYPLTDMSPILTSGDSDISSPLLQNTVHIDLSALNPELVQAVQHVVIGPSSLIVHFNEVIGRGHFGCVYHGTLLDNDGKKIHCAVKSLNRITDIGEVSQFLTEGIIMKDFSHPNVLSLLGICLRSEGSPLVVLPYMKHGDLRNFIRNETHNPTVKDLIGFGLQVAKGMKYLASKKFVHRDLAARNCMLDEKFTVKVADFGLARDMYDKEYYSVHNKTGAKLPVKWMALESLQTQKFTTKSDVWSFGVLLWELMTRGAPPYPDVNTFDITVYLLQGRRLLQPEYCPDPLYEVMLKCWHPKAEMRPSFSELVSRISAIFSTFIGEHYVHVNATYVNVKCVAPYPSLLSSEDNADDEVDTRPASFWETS
Vascular endothelial growth factor receptor 2, sequence (P35968 whole entry, the tested form may be a part): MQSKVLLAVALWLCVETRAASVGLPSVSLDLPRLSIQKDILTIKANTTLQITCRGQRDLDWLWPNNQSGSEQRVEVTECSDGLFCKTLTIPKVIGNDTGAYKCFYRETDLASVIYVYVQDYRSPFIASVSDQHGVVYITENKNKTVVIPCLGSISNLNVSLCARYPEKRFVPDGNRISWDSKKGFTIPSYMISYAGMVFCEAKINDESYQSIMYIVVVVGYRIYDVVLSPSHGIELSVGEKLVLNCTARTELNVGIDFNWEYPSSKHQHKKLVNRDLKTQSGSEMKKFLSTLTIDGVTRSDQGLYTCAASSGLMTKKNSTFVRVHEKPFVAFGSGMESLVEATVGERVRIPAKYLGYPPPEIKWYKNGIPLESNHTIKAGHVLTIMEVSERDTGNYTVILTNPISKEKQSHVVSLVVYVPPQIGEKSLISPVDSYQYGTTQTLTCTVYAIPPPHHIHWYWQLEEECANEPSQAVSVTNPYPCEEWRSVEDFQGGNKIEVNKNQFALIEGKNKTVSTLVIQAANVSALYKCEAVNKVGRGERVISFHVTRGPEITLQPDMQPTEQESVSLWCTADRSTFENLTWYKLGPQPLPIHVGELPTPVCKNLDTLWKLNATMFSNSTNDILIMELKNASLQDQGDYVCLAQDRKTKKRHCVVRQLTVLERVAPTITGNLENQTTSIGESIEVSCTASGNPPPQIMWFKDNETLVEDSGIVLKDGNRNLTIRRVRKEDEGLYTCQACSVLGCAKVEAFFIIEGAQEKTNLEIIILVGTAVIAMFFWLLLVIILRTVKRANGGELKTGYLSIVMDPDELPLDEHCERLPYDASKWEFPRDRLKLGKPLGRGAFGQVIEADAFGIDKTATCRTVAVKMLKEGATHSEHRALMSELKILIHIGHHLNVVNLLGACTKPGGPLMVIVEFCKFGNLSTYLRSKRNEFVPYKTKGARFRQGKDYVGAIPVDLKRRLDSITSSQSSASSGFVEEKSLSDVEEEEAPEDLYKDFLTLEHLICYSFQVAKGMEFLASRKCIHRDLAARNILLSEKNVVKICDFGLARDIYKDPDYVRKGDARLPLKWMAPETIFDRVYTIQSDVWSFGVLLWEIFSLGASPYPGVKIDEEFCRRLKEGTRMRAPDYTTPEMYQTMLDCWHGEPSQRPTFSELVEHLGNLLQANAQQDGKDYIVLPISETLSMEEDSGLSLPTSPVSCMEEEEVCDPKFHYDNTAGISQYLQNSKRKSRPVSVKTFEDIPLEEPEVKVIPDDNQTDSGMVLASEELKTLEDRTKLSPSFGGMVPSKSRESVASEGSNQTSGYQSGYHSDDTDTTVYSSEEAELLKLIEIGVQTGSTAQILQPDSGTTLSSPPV

Compound	inhibition at 10 µM (MKN-45) [%]	pIC50 [1]	pIC50 [2]	inhibition at 10 µM [3] [%]	inhibition at 10 µM (HT-29) [%]	half-life (in vitro) [h]	other results
O=C(CO)Nc1cc(Oc2ccc(Nc3nccc4[nH]cc(-c5ccc(F)cc5)c(=O)c34)cc2F)ccn1	63	8.00	7.23	53.6	18.5	7.23	
O=C(Nc1cc(Oc2ccc(Nc3nccc4[nH]cc(-c5ccc(F)cc5)c(=O)c34)cc2F)ccn1)C1CCC1	52.8	7.62	7.21	43.6	46		
CCn1cc(-c2ccc(F)cc2)c(=O)c2c(Nc3ccc(Oc4ccnc(NC(=O)C5CC5)c4)c(F)c3)nccc21	31.9	7.81	5.86	11	15.8		Ratio IC50 (Homo sapiens): 88
O=C(Nc1cc(Oc2ccc(Nc3nccc4[nH]cc(-c5ccc(F)cc5)c(=O)c34)cc2F)ccn1)C1CC1	81.8	8.09	8.06	54.6	25.5	13.2	Cmax [4]: 2700 ng/mL; bioavailability [5]: 63%; half-life [6]: 6.4 h; MRT [7]: 11.4 h; half-life [8]: 6.8 h; Cmax [9]: 1900 ng/mL; Vd [10]: 1.1 L/kg; AUC(0-inf) [11]: 42200 ng·h/mL; Tmax [12]: 7.3 h; Vd [13]: 0.7 L/kg; clearance [14]: 1.33 mL/min/kg; AUC(0-inf) [15]: 13500 ng·h/mL; CL/F [16]: 1.67 mL/min/kg; MRT [17]: 8.5 h
CCCC(=O)Nc1cc(Oc2ccc(Nc3nccc4[nH]cc(-c5ccc(F)cc5)c(=O)c34)cc2F)ccn1	64.6	7.83	7.71	49.7	23.5		
CCCCC(=O)Nc1cc(Oc2ccc(Nc3nccc4[nH]cc(-c5ccc(F)cc5)c(=O)c34)cc2F)ccn1	62.7	7.83	7.57	71.8	-42.2		
Nc1nccc(Oc2ccc(Nc3nccc4[nH]cc(-c5ccc(F)cc5)c(=O)c34)cc2F)c1Cl	85.7	8.01	7.17	79.1	56.2	3.16	bioavailability [18]: 12%; half-life [19]: 1 h; Vd [20]: 0.4 L/kg; half-life [21]: 0.5 h; Cmax [22]: 600 ng/mL; CL/F [23]: 83.3 mL/min/kg; MRT [24]: 0.3 h; Tmax [25]: 2.7 h; AUC(0-inf) [26]: 2200 ng·h/mL; MRT [27]: 3 h; Cmax [28]: 16400 ng/mL; Vd [29]: 7.5 L/kg; Tmax [30]: 1.8 min; AUC(0-inf) [31]: 4500 ng·h/mL; clearance [32]: 10 mL/min/kg
O=C(Nc1cc(Oc2ccc(Nc3nccc4[nH]cc(-c5ccc(F)cc5)c(=O)c34)cc2F)ccn1)C1CCCCC1	55.2	8.01	< 5.52	72.1	8.7	1.34	Ratio IC50 (Homo sapiens): > 306
COc1cc2nccc(Oc3ccc(NC(=O)C4(C(=O)Nc5ccc(F)cc5)CC4)cc3)c2cc1OC [CABOZANTINIB]	49.1			54.8	29		
CC(=O)Nc1cc(Oc2ccc(Nc3nccc4[nH]cc(-c5ccc(F)cc5)c(=O)c34)cc2F)ccn1	77.1	7.67	7.42	58.2	36.8		
CC(C)C(=O)Nc1cc(Oc2ccc(Nc3nccc4[nH]cc(-c5ccc(F)cc5)c(=O)c34)cc2F)ccn1	95.4	7.75	6.64	84.6	83.4		
CC(O)C(=O)Nc1cc(Oc2ccc(Nc3nccc4[nH]cc(-c5ccc(F)cc5)c(=O)c34)cc2F)ccn1 (configuration not stated)	67.3	7.93	6.54	56	47.8	4.15	
CC(C)(O)Cn1cc(-c2ccc(F)cc2)c(=O)c2c(Nc3ccc(Oc4ccnc(NC(=O)C5CC5)c4)c(F)c3)nccc21	44.3	7.59	< 4.52	67.4	-2.6		
O=C(Nc1cc(Oc2ccc(Nc3nccc4c3c(=O)c(-c3ccc(F)cc3)cn4CCO)cc2F)ccn1)C1CC1	41.8	7.47	4.98	52.1	3.5		
CC(C)(C)C(=O)Nc1cc(Oc2ccc(Nc3nccc4[nH]cc(-c5ccc(F)cc5)c(=O)c34)cc2F)ccn1	62.5	7.55	< 5.52	56.7	-45.8		Ratio IC50 (Homo sapiens): > 107
CC(C)(O)C(=O)Nc1cc(Oc2ccc(Nc3nccc4[nH]cc(-c5ccc(F)cc5)c(=O)c34)cc2F)ccn1	57.8	7.46	< 5.52	54.3	-2.9		Ratio IC50 (Homo sapiens): > 85.7
CCC(=O)Nc1cc(Oc2ccc(Nc3nccc4[nH]cc(-c5ccc(F)cc5)c(=O)c34)cc2F)ccn1	92.1	8.33	7.69	69.7	68.7	2.72	
